“Also recorded” adds a separate entry of the source.
Assays:
OCI-LY3 cells = test: Mitomycin C dose-response with JAK2 inhibitor TG101348 (CellTiter-Glo); assay type: cell-based, human; settings: mitomycin C with TG101348 at 0.2, 0.4, 0.6 uM, 48 hrs
Description: The JAK2-selective inhibitor TG101348 and Mitomycin C was purchased from Selleckchem and Tocris Bioscience respectively and were and dissolved in DMSO. OCI-LY3 cells were treated with the indicated compounds in 96-well plates and there growth was determined using the CellTiter-Glo Luminescent Cell Viability Assay (Promega Corp). Typically, 30,000 OCI-Ly3 cells per well in 200 μL of growth medium were grown for 48 hrs in the presence or absence (DMSO alone) of the desired compounds, and then assayed with CellTiter Glo according to manufacturer's instructions.

U-2-OS cells [1] = test: Vincristine dose-response (alamar Blue growth inhibition) after siRNA-mediated gene silencing; assay type: cell-based
Description: Small interfering RNA (siRNA) targeting each specified gene and siControl SMARTpools were obtained from Dharmacon Technologies (see Table 3). Reverse transfection was performed by preparing a solution of 1 mL of Opti-MEM (Invitrogen), […], of Lipofectamine-RNAiMAX reagent (Invitrogen) and 1.25 μL of 10 μM RNAi solution (final working concentration is […]), and incubating the mixture (1 mL/well) in a 6-well dish for 20 minutes at 37° C. U-2-OS cells were detached from culture flask, and re-suspended in 2× serum-containing media at a density of 4×10^5 cells/mL. One mL of cell suspension was transferred to each well containing the transfection mixture, and the 6-well plate was returned to culture incubator. After 48 hrs, cells were detached and reverse transfected again using the same procedures. After 48 hrs, cells were trypsinized and reseeded into 384-well format to determine sensitivity against vincristine. […] Plates were incubated further for 16 hrs to allow reduction of alamar Blue, which results in the generation of red fluorescence. The fluorescence intensity was determined using a Victor 3 plate reader (Perkin Elmer, Inc.), and used to calculated percent growth inhibition.

U-2-OS cells [2] = test: Microtubule network visualised with anti-tubulin antibody; assay type: cell-based; settings: vincristine 4 nM for 24 hrs, compared to DMSO / non-specific siRNA
Description: Cells were grown on coverslips to ˜50% confluency and treated with compounds for 24 hrs. Cells were fixed with 3.7% formaldehyde solution in PBS for 15-30 minutes followed by washing with PBS 5 times. Cell membrane was permeabilized with 0.2% Triton-X in PBS for 10 minutes and rinsed once with TBS (10 mM Tris [pH 7.5], 150 mM NaCl). The permeabilized sample was blocked with 10% goat serum in TTBS (0.1% Tween-20 in TBS) for 30-60 minutes and washed once with TTBS. The microtubule network was probed with anti-tubulin antibody (Santa Cruz cat #sc-32293) in 1% goat serum in TTBS for 30-60 minutes at room temperature followed by washing in TTBS for 10 minutes. Alexa Fluor anti-mouse antibody (Invitrogen, cat #A-11005) was used as the secondary antibody to visualize the microtubule network using the 60× lens of a confocal microscope.

U-2932 cells [3] = test: Glutathione (GSH) level in treated cells; assay type: cell-based; settings: 1 mM, 24 hrs, versus DMSO
Description: U-2932 cells were seeded in 10 cm dish (2×10^6/dish) and grown at 37° C. for 16 hrs. Cells were treated with vehicle (0.4% DMSO), 1 mM sulfasalazine (24 hr IC50) or 1 mM altretamine (double the 24 hr IC50), and incubated for 24 hrs. Cells were then harvested, pelleted, washed once with 400 μl ice-cold PBS containing 1 mM EDTA and sonicated. After the debris was pelleted and removed, both oxidized and reduced glutathione in 120 μL of sample was quantified in technical triplicate using QuantiChrome glutathione assay kit (BioAssay Sytems). The glutathione quantity was normalized to protein concentration measured with Bradford assay (Bio-Rad).

U-2932 cells [4] = test: Cell viability, 24 hr IC50; assay type: cell-based; settings: Homo sapiens, U2932
Description: Compounds were selected based on their activity in a primary screen of FDA-approved, late-stage experimental, and tool compounds. OCI-LY3, OCI-LY7 and U-2932 cells were seeded in white, tissue culture-treated 96-well plates at a density of 5×10^4 cells per well in 100 μL total volume using the Janus automated liquid handling system (Perkin Elmer Inc.). After 12 hrs of incubation at 37° C. the plates were allowed to cool to room temperature prior to compound addition via the Janus. Compounds were transferred as 1 μL of DMSO stock solutions into the assay plates (plate based triplication), which were subsequently placed on an orbital shaker for 5 minutes and then placed back in the incubator. […] Plates were shaken 5 minutes on an orbital shaker before data acquisition in an Envision (PerkinElmer Inc.) (0.5 second read time, enhanced luminescence). IC20 values were determined using IDBS Activity Base utilizing a four parameter fit model.
U-2932 cells were seeded in 10 cm dish (2×10^6/dish) and grown at 37° C. for 16 hrs. […] After the debris was pelleted and removed, both oxidized and reduced glutathione in 120 μL of sample was quantified in technical triplicate using QuantiChrome glutathione assay kit (BioAssay Sytems). The glutathione quantity was normalized to protein concentration measured with Bradford assay (Bio-Rad).

U-2932 cells [5] = test: Lipid ROS by C11-BODIPY staining and flow cytometry; assay type: cell-based; settings: BODIPY-C11, versus DMSO
Description: U-2932 cells (2×10^5) were seeded in 6-well plates and incubated at 37° C. for 16 hrs. Cells were treated with test compounds for the indicated time, then harvested, pelleted and washed once with PBS. For lipid ROS detections, cells were re-suspended with Hanks Balanced Salt Solution (HBSS, Life Technologies) containing C11-BODIPY (581/591) (2 μM) (Life Technologies) and incubated for 10 minutes at 37° C. Cells were then pelleted, re-suspended in 500 μL HBSS, strained through […] cell strainer (BD Falcon), and analyzed using BD Accuri C6 flow cytometer (BD Biosciences). C11-BODIPY signal was measured using FL1 channel. Experiments were done in biological triplicates, and a representative result was shown.

GPX4 = molecular target: T1, GPX4 (Homo sapiens, UniProt P36969); test: LC-MS based GPX4 assay (PC-OOH reduction) in lysates of treated cells; assay type: cell-based; settings: lysates of altretamine treated U-2932 cells versus untreated lysate
T1 construct: endogenous in cells; host or cells: U-2932 cells (cleared whole-cell lysate)
T1 sequence (P36969 1-197): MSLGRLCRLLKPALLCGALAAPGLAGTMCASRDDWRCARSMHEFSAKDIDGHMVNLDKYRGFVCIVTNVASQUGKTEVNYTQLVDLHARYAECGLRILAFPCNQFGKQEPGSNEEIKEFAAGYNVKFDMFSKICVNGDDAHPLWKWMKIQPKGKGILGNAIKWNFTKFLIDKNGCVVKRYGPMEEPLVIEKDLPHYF
Description: GPX4 enzymatic activity assay was performed as follows. Briefly, 1×10^6 cells were re-suspended in the cell lysis buffer. Sonication was used to make cell lysates followed by centrifugation at 14,000 rpm for 10 minutes. Protein concentration of the cleared cell lysates was determined using a Bradford protein assay (Bio-Rad). Two hundred micrograms of cellular proteins was mixed with phosphatidyl choline hydroperoxide (PC—OOH), the GPX4 specific substrate, and reduced glutathione, a GPX4 cofactor. The mixture was incubated at 37° C. for 30 minutes followed by lipid extraction using a chloroform:methanol (2:1) solution. The lipid extract was evaporated using a rotary evaporator, and re-dissolved in 100% ethanol before injecting into LC-MS instrument for PC-OOH quantitation.

## Cc1cnc(Nc2ccc(OCCN3CCCC3)cc2)nc1Nc1cccc(S(=O)(=O)NC(C)(C)C)c1 [TG101348]
OCI-LY3 cells
  effect of JAK2 inhibition on mitomycin C activity (percent cell inhibition): significant, dose-dependent antagonism

## CO[C@@]12[C@H](COC(N)=O)C3=C(C(=O)C(C)=C(N)C3=O)N1C[C@@H]1N[C@@H]12 [mitomycin C]
OCI-LY3 cells
  effect of JAK2 inhibition on mitomycin C activity (percent cell inhibition): reduction in the sensitivity of the cells; also recorded: significant, dose-dependent antagonism

## CC[C@]1(O)C[C@H]2CN(CCc3c([nH]c4ccccc34)[C@@](C(=O)OC)(c3cc4c(cc3OC)N(C=O)[C@H]3[C@@](O)(C(=O)OC)[C@H](OC(C)=O)[C@]5(CC)C=CCN6CC[C@]43[C@@H]65)C2)C1 [vincristine]
U-2-OS cells [1]; siRNA targeting CCNB1, 48 hrs vincristine
  change of vincristine sensitivity after CCNB1 silencing: reduces the cell sensitivity; also recorded: had the opposite effect
U-2-OS cells [1]; siRNA targeting RPS3A, 48 hrs vincristine
  change of vincristine sensitivity after RPS3A silencing: reduces the cell sensitivity; also recorded: had the opposite effect
U-2-OS cells [1]; siRNA targeting VHL, 48 hrs vincristine
  change of vincristine sensitivity after VHL silencing: increases the sensitivity two-folds; also recorded: more than two-fold
U-2-OS cells [2]
  effect on microtubule network: significantly altered microtubule network

## O=C(O)c1cc(/N=N/c2ccc(S(=O)(=O)Nc3ccccn3)cc2)ccc1O [sulfasalazine]
U-2932 cells [3]
  GSH levels: reduces the levels of active GSH compared to control
U-2932 cells [3]; listed as Sulfasalazine
  GSH levels: depletion of GSH levels
U-2932 cells [4]
  IC50: 1000 µM
U-2932 cells [5]
  lipid-ROS levels: significantly increases the levels of lipid-ROS; also recorded: induce lipid-ROS accumulation

## CN(C)c1nc(N(C)C)nc(N(C)C)n1 [altretamine]
U-2932 cells [3]
  GSH levels: indistinguishable from the control; also recorded: did not deplete GSH levels
GPX4
  GPX4 activity (residual PC-OOH signal): decreases the activity of GPX4; also recorded: displayed a significant [PC—OOH+H^+] signal
U-2932 cells [5]
  lipid-ROS levels: significantly increases the levels of lipid-ROS; also recorded: induce lipid-ROS accumulation
